{"source": "patent US5260327A", "about": "“Methods for inhibiting the proliferation of brain and hepatic metastases by using lonidamine” (priority 1992, dated 1993)", "key": {"HeLa cells": {"test_system": "HeLa cells", "experiment": "Effect of gossypol on cell multiplication at 37° C.", "type": "cell-based, human", "experimental": "(§1) Experiments were carried out with HeLa S-3 cells grown in Eagle's minimal essential medium supplemented with 10% fetal calf serum.\n(§2) The pH of the culture medium was adjusted by varying the CO2 content of the gas phase within the flasks. The buffering system of Eagle's minimal essential medium consisted of 26 mM NaHCO3 at 5% CO2 for neutral pH of 7.4. To obtain a pH of 6.7, for example, the flasks were flushed with the gas mixtures containing 26% CO2. The pH of the culture medium was monitored throughout the treatment procedures by sealing a combination electrode in a treatment vessel and monitored with temperature-compensated digital pH meter.\n(§3) Gossypol was dissolved in DMSO immediately prior to experiments. DMSO produced no enhancement of hyperthermic cytotoxicity with the range studied.\nPreliminary experiments were carried out to determine the effect of gossypol on cell division. Exponentially growing HeLa cells were exposed to the drug for 72 hours at 37° C. Control cells grew exponentially with a doubling time of approximately 19 hours."}, "HeLa S-3 cells [1]": {"test_system": "HeLa S-3 cells", "experiment": "Effect of gossypol on cell survival at elevated temperature, pH and glucose conditions", "type": "cell-based, human", "conditions": "for viability at 10 µg/mL: Homo sapiens, HeLa S3", "experimental": "as §1\nPlated monolayer cells were heated within 0.05° of the desired temperature by totally immersing plastic culture flasks in a heated water bath. Water bath temperatures were verified by a National Bureau of Standards thermometer.\nas §2\n(§4) The \"glucose-deprived\" medium was prepared by adding 10% dialyzed fetal calf serum to the culture medium without glucose. The dialyzed fetal calf serum contained less than 1 mg glucose per 100 ml so that the final concentration of glucose in the \"glucose-deprived\" medium was less than 0.001 mg per ml.\nas §3\nFor example, at 10 μg/m. and 2 hours exposure at 42° C., the cells survival is reduced to 1% under acidic condition. Heat treatment alone reduces the cell survival to only 50% of the control.\nSince gossypol has been reported to interfere with cellular energy metabolism, experiments were performed to determine the influence of glucose on the cytotoxic effect of gossypol. […] The survival of glucose-fed cells exposed to the same treatment was approximately 10% while that of glucose-deprived cells can further enhance the cytotoxic effect of gossypol at elevated temperature."}, "spermatogenesis": {"test_system": "spermatogenesis", "conditions": "in vivo; cited from earlier work"}, "testicular tissues": {"test_system": "testicular tissues", "conditions": "cited from earlier work"}, "[2]": {"test_system": "cultured tumor cell lines", "conditions": "cited from earlier work"}, "[3]": {"test_system": "glycolytic and mitochondrial bound enzymes", "conditions": "cited from earlier work"}, "MCA mammary carcinoma": {"test_system": "MCA mammary carcinoma", "experiment": "Radiation enhancement in the transplanted MCA mammary carcinoma, with or without mild hyperthermia", "type": "in vivo, murine", "conditions": "even at the LD10 dosage", "experimental": "Nicotinamide was administered intraperitoneal one (1) […] before irradiation. Localized mild hyperthermia (41° C.) was applied for one (1) hour immediately prior to irradiation."}, "HeLa S-3 cells [4]": {"test_system": "HeLa S-3 cells", "experiment": "cells", "type": "cell-based, human", "conditions": "for viability at 10 µg/mL: Homo sapiens, HeLa S3, 24 hours", "experimental": "Experiments were carried out with HeLa S-3 cells grown in Eagle's minimal essential medium supplemented with 10% fetal calf serum. […] No antifungal agent was used.\nCell survival was assayed by colony-forming ability of plated single cells to obtain quantitative dose-survival curves. Details of cloning experiments including colony court have been described elsewhere (See, e.g., Kim et al. supra).\nPlated a synchronous monolayer cells were heated to within 0.05° C. of the desired temperature by totally immersing plastic culture flasks in a water bath. Water bath temperatures were verified by a National Bureau of Standards calibrated thermometer.\nThe pH of the culture medium was adjusted by varying the CO2 content of the gas phase within the flasks. […] The pH of the culture medium was monitored throughout the treatment procedures by sealing a combination electrode in a treatment vessel and monitored with a temperature-compensated digital pH meter.\nas §4"}, "cells": {"test_system": "cells", "conditions": "high doses; cited from earlier work"}, "[5]": {"conditions": "human cancer cells (HeLa), heated"}, "[6]": {"conditions": "acidic pH, glucose-deprived cells"}}, "data": [{"molecule": "Cc1cc2c(C(C)C)c(O)c(O)c(C=O)c2c(O)c1-c1c(C)cc2c(C(C)C)c(O)c(O)c(C=O)c2c1O", "note": "[gossypol]", "values": [{"measurement": "growth rate versus control", "setting": "HeLa cells; 1.25 μg/ml", "result": "the same as that of the control cells"}, {"measurement": "doubling time", "setting": "HeLa cells; 2.5 μg/ml, incubation times greater than 24 hours", "result": "a lengthening of doubling time was observed"}, {"measurement": "growth curve versus control", "setting": "HeLa cells; 2.5 μg/ml, initial 24 hours", "result": "not significantly different from the control"}, {"measurement": "cell growth (multiplication)", "setting": "HeLa cells; 5, 10 and 20 μg/ml, 72 hours", "result": "grew exponentially for the first 24 hour period and then remained stationary"}, {"measurement": "cytotoxicity, glucose deprivation at 37° C.", "setting": "HeLa S-3 cells [1]; 10 μg/ml, glucose-deprived, 37° C., pH 7.4", "result": "no apparent cytotoxicity"}, {"measurement": "cell killing, glucose deprivation at 42° C.", "setting": "HeLa S-3 cells [1]; 10 μg/ml, glucose-deprived, 42° C. for 4 hours, pH 7.4", "result": "a substantial increase in cell killing"}, {"measurement": "drug toxicity (cell survival)", "setting": "HeLa S-3 cells [1]; 5 and 10 μg/ml, up to 4 hours, 37° C., acidic or neutral conditions", "result": "no appreciable drug toxicity"}, {"measurement": "viability at 10 µg/mL", "setting": "HeLa S-3 cells [1]; 10 μg/ml, 2 hours exposure at 42° C., acidic condition (heat alone: 50% of control), read-out: cell survival", "result": 1, "unit": "%"}, {"measurement": "viability at 10 µg/mL", "setting": "HeLa S-3 cells [1]; 10 μg/ml, glucose-fed, 42° C. for 4 hours, pH 7.4, read-out: survival of glucose-fed cells", "result": "~10", "unit": "%"}, {"measurement": "pH dependence of cytotoxic effect of hyperthermia on drug-treated cells", "setting": "HeLa S-3 cells [1]; elevated temperature, acidic vs neutral", "result": "most pronounced under acidic conditions"}, {"measurement": "hyperthermic sensitization", "setting": "HeLa S-3 cells [1]; [5]", "result": "effective hyperthermic sensitizers of human cancer cells"}, {"measurement": "inhibition of spermatogenesis", "setting": "spermatogenesis", "result": "inhibitor of spermatogenesis"}, {"measurement": "toxicity to testicular tissues", "setting": "testicular tissues; in vivo", "result": "selectively toxic to testicular tissues"}, {"measurement": "effect on other tissues", "setting": "testicular tissues; non-testicular tissues", "result": "no observable effect on other tissues"}, {"measurement": "anti-tumor effects", "setting": "[2]", "result": "anti-tumor effects against cultured tumor cell lines"}, {"measurement": "enzyme inhibition", "setting": "[3]", "result": "inhibition of glycolytic and mitochondrial bound enzymes"}]}, {"molecule": "O=C(O)c1cccnc1", "note": "[nicotinic acid]", "values": [{"measurement": "radiation enhancement, MCA mammary tumor, nicotinic acid", "setting": "MCA mammary carcinoma", "result": "did not produce radiation enhancement"}]}, {"molecule": "COC(=O)c1ccccc1-c1c2ccc(=N)cc-2oc2cc(N)ccc12", "note": "[rhodamine 123]", "values": [{"measurement": "cell surviving fraction, initial 4 hour exposure", "setting": "HeLa S-3 cells [4]; 10 μg/ml, 4 hours, 37° C., glucose-fed or glucose-deprived", "result": "no appreciable reduction in the cell surviving fraction"}, {"measurement": "cell survival at 37° C., exposure limit", "setting": "HeLa S-3 cells [4]; 37° C., 4 hour", "result": "did not produce any detectable reduction in cell survival"}, {"measurement": "effect on hyperthermic cytotoxicity, glucose-deprived vs glucose-fed cells", "setting": "HeLa S-3 cells [4]; 40, 41 and 42° C., up to 4 hours", "result": "selectively increased the cytotoxic effects of hyperthermia in glucose-deprived cells relative to glucose-fed cells"}, {"measurement": "viability at 10 µg/mL", "setting": "HeLa S-3 cells [4]; 10 μg/ml, 37° C., glucose-deprived, read-out: surviving fraction in the absence of glucose", "result": "< 1", "unit": "%"}, {"measurement": "viability at 10 µg/mL", "setting": "HeLa S-3 cells [4]; 10 μg/ml, 37° C., glucose-fed, read-out: surviving fraction in the presence of glucose", "result": 80, "unit": "%"}, {"measurement": "cytotoxicity at acidic pH relative to pH 7.4", "setting": "HeLa S-3 cells [4]; [6]", "result": "less than that observed at pH 7.4"}, {"measurement": "influence of acidic pH on cytotoxicity of heat", "setting": "HeLa S-3 cells [4]; [6]", "result": "did not substantially enhance the cytotoxicity of heat in glucose-deprived cells"}, {"measurement": "dependence of potentiation of heat effects", "setting": "HeLa S-3 cells [4]; glucose-deprived cells, two hours", "result": "dependent on the elevated temperature and drug concentration in glucose-deprived cells"}, {"measurement": "hyperthermia enhancement in glucose-fed cells", "setting": "HeLa S-3 cells [4]; glucose-fed, different temperatures for two hours", "result": "No hyperthermia enhancement"}, {"measurement": "hyperthermic sensitization", "setting": "HeLa S-3 cells [4]; [5]", "result": "effective hyperthermic sensitizers of human cancer cells"}, {"measurement": "effects of continuous exposure", "setting": "cells", "result": "inhibit oxidative phosphorylation, to arrest cells in G1 phase, and to induce loss of reproductive capacity"}]}]}
